Source: PubChem BioAssay (NCI)
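Values below derive from 48-hour exposures of cells grown in 96-well plates, with endpoints linearly interpolated between the two concentrations bracketing the appropriate inhibition level. Abbreviation: GI50, concentration required for 50% inhibition of growth. TGI: concentration producing complete growth inhibition.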

Key:
Experiment in all cases: NCI tumour cell line growth inhibition, 48 h
CAKI-1 renal = system: CAKI-1 renal
MOLT-4 leukemia = system: MOLT-4 leukemia
PC-3 prostate = system: PC-3 prostate
HCC-2998 colon = system: HCC-2998 colon
SN12C renal = system: SN12C renal
SK-MEL-5 melanoma = system: SK-MEL-5 melanoma
CCRF-CEM leukemia = system: CCRF-CEM leukemia
UACC-257 melanoma = system: UACC-257 melanoma
M14 melanoma = system: M14 melanoma
SK-OV-3 ovarian = system: SK-OV-3 ovarian
HS 578T breast = system: HS 578T breast
SK-MEL-2 melanoma = system: SK-MEL-2 melanoma
OVCAR-5 ovarian = system: OVCAR-5 ovarian
SF-295 CNS = system: SF-295 CNS
RXF 393 renal = system: RXF 393 renal
NCI-H522 lung = system: NCI-H522 lung
SF-268 CNS = system: SF-268 CNS
SK-MEL-28 melanoma = system: SK-MEL-28 melanoma
T-47D breast = system: T-47D breast
NCI-H23 lung = system: NCI-H23 lung
HCT-116 colon = system: HCT-116 colon
OVCAR-4 ovarian = system: OVCAR-4 ovarian
MDA-MB-231 breast = system: MDA-MB-231 breast
MDA-MB-435 = system: MDA-MB-435
SF-539 CNS = system: SF-539 CNS
SR leukemia = system: SR leukemia
NCI-H460 lung = system: NCI-H460 lung
K-562 leukemia = system: K-562 leukemia
HT29 colon = system: HT29 colon

O=C(Nc1cccc(-c2nc(-c3ccc(NC(=O)c4cccnc4)cc3Cl)no2)c1)Nc1ccc(NC(=O)C2CC2)c(C(F)(F)F)c1 gave a GI50 (CAKI-1 renal) of 437 nM, a TGI (CAKI-1 renal) of 1800 nM and a GI50 (MOLT-4 leukemia) of 288 nM. For the same compound, the TGI (MOLT-4 leukemia) was 1020 nM, the GI50 (PC-3 prostate) was 226 nM and the TGI (PC-3 prostate) was 790 nM. The GI50 (HCC-2998 colon) was 689 nM, the TGI (HCC-2998 colon) was 2060 nM and the GI50 (SN12C renal) was 415 nM. It also gave a TGI (SN12C renal) of 1660 nM, a GI50 (SK-MEL-5 melanoma) of 381 nM and a TGI (SK-MEL-5 melanoma) of 1400 nM. For the same compound, the GI50 (CCRF-CEM leukemia) was 270 nM, the TGI (CCRF-CEM leukemia) was 1900 nM and the GI50 (UACC-257 melanoma) was 1330 nM. It also gave a TGI (UACC-257 melanoma) of 3490 nM, a GI50 (M14 melanoma) of 307 nM and a TGI (M14 melanoma) of 1280 nM. The GI50 (SK-OV-3 ovarian) was 1760 nM, the TGI (SK-OV-3 ovarian) was 3890 nM and the GI50 (HS 578T breast) was 324 nM. For the same compound, the TGI (HS 578T breast) was 1290 nM, the GI50 (SK-MEL-2 melanoma) was 1140 nM and the TGI (SK-MEL-2 melanoma) was 2980 nM. The GI50 (OVCAR-5 ovarian) was 446 nM, the TGI (OVCAR-5 ovarian) was 1710 nM and the GI50 (SF-295 CNS) was 271 nM. It also gave a TGI (SF-295 CNS) of 752 nM, a GI50 (RXF 393 renal) of 247 nM and a TGI (RXF 393 renal) of 741 nM. The GI50 (NCI-H522 lung) was 349 nM, the TGI (NCI-H522 lung) was 1760 nM and the GI50 (SF-268 CNS) was 1070 nM. It also gave a TGI (SF-268 CNS) of 4830 nM, a GI50 (SK-MEL-28 melanoma) of 559 nM and a TGI (SK-MEL-28 melanoma) of 1710 nM. For the same compound, the GI50 (T-47D breast) was 535 nM, the TGI (T-47D breast) was 2400 nM and the GI50 (NCI-H23 lung) was 411 nM. For the same compound, the TGI (NCI-H23 lung) was 1570 nM, the GI50 (HCT-116 colon) was 303 nM and the TGI (HCT-116 colon) was 1280 nM. For the same compound, the GI50 (OVCAR-4 ovarian) was 565 nM, the TGI (OVCAR-4 ovarian) was 1830 nM and the GI50 (MDA-MB-231 breast) was 323 nM. The TGI (MDA-MB-231 breast) was 1260 nM, the GI50 (MDA-MB-435) was 126 nM and the TGI (MDA-MB-435) was 381 nM. For the same compound, the GI50 (SF-539 CNS) was 226 nM, the TGI (SF-539 CNS) was 655 nM and the GI50 (SR leukemia) was 96.3 nM. For the same compound, the TGI (SR leukemia) was 962 nM, the GI50 (NCI-H460 lung) was 343 nM and the TGI (NCI-H460 lung) was 1130 nM. The GI50 (K-562 leukemia) was 156 nM, the TGI (K-562 leukemia) was 10700 nM and the GI50 (HT29 colon) was 336 nM. It also gave a TGI (HT29 colon) of 1430 nM.
